We go through 32 compounds from patent US20250319032A1, “PHARMACEUTICAL COMPOSITIONS OF RIBOCICLIB” (Novartis AG, priority 2024, published 2025).

Each structure is given as a SMILES string.

The first series in a line: Nitrite content (ion chromatography; LC-FLD with DAN derivatisation; Griess test) in drug substance, intermediates, reagents, solvents, filters, excipients. To be noted: drug substance manufactured at Menges, T0. In kind it is physicochemical. Further details: Nitrite content T0 (enhanced method): unit: ppm. The text has this:
The method of testing for the presence and/or total amount of nitrites that is used in the methods of the invention may be any method which allows for the detection and/or quantitation of nitrites in a composition. For example, the method may be the Griess test. The Griess test allows for the detection and analysis of nitrite by the formation of a red-pink colour upon treatment of a nitrite-containing sample with the Griess reagent. The Griess reagent consists of two components in an acidic solution: an aniline derivative and a coupling agent. The most common arrangements use sulfanilamide and N-(1-naphthyl)ethylenediamine. For example 0.2% N-(1-naphthyl)ethylenediamine dihydrochloride and 2% sulfanilamide in 5% phosphoric acid may be used as a Griess reagent. Other aniline derivatives that may be used in a Griess reagent include sulfanilic acid, nitroaniline, and p-aminoacetophenone.
The Griess test involves two subsequent reactions, as shown in the scheme below. When the aniline derivative (e.g., sulfanilamide) is added, the nitrite ion reacts with it in the Griess diazotization reaction to form a diazonium salt, which then reacts with N-(1-naphthyl)ethylenediamine in an azo-coupling reaction, forming a pink-red azo-dye. Using a spectrophotometer, the nitrite concentration can then be quantitatively detected.
Additionally purified water; e.g. Milli Q • 2.
• 10 mM KH2PO4 Weigh accurately about 1.361 g of KH2PO4 into a 1 L volumetric flask, dissolve it in approximately 950 mL of additionally purified water and adjust the pH to 8.0 (with 2.7 M NaOH). Make up to the mark with additionally purified water. • 0.62 M HCl Add a few millilitres (e.g. 20 mL) of additionally purified water to a 200 mL volumetric flask, add 10.280 mL of concentrated HCl, mix and make up to the mark with additionally purified water. • 2.7 M NaOH Weigh accurately about 1.092 g of NaOH pellets into a 10 mL volumetric flask and dissolve it in additionally purified water. Cool to room temperature and make up to the mark with the same solvent. • Reagent DAN Weigh accurately about 5 mg of 2,3-diaminophthalene into a 100 mL volumetric flask and dissolve it with the solvent (methanol/water 1:1 (v/v)). Dilute up to the mark and ensure visual full dissolution. Use an amberglass flask. • Mobile phase A Mix 950 mL of 10 mM KH2PO4 solution (pH=8) and add 50 mL methanol. • Mobile phase B Methanol. • Solvent Methanol/water 1:1 (v/v), e.g. mix 2000 mL of additionally purified water and 2000 mL methanol.
• Instrument: HPLC with FLR detector; e.g. Waters Arc or equivalent • Column: C18 50×4.6 mm, 2.5 μm, e.g. XBridge C18 2.5 μm, 4.650 mm or equivalent
• Notes It is recommended to wear additional protective equipment (face mask and gloves) during weighing. • It is recommended to wash the column with 50% methanol after the analysis (example of preparation: mix 500 mL methanol and 500 m1 of additionally purified water). • It is recommended to rinse the injector with solvent after each injection. • All glassware and tools should be rinsed with additionally purified water before use. It is not recommended to leave the solutions open for a longer time before measurement. • Blank solution 1 Transfer 1 mL of solvent into a HPLC vial and perform derivatization as described below. • Blank solution 2 Transfer 10 mL of solvent into a single use glass vial and mix it on a magnetic stirrer for 30 min. Transfer the solution into a 5 mL centrifuge tube and centrifuge for 10 min at 12000 rpm. […] Fill up to the mark with solvent and mix. • (Cnitrite≈0.0005 mg/mL) • Comparison solution Transfer 10 mL of nitrite stock solution into a 500 mL volumetric flask. • (2 parallels) Fill up to the mark with solvent and mix. • Transfer 1 mL solution into a HPLC vial and perform the derivatization as described below. • (Cnitrite≈100 ppb) • Sample solution Accurately weigh about 1000 mg of the sample into a glass vial for single use and add 10 mL of solvent.
On the technique in general: The Griess reaction detects nitrite, a stable product of nitric oxide.
As to `CN(C)C(=O)c1cc2cnc(Nc3ccc(N4CCNCC4)cn3)nc2n1C1CCCC1.O=C(O)CCC(=O)O` [Batch B692472], the “Nitrite content T0 (enhanced method)” value was 0.1.
Same read-out and setting: next, `CN(C)C(=O)c1cc2cnc(Nc3ccc(N4CCNCC4)cn3)nc2n1C1CCCC1.O=C(O)CCC(=O)O` [Batch B695104]: 0.5.
Same read-out and setting: the result for `CN(C)C(=O)c1cc2cnc(Nc3ccc(N4CCNCC4)cn3)nc2n1C1CCCC1.O=C(O)CCC(=O)O` [Batch B695106] reads 0.1.
In the case of `CN(C)C(=O)c1cc2cnc(Nc3ccc(N4CCNCC4)cn3)nc2n1C1CCCC1.O=C(O)CCC(=O)O` [Batch B696587], the “Nitrite content T0 (enhanced method)” value is under 0.1.

Staying with this series, now noted: ribociclib base (LEE011 B10), ion chromatography.
`CN(C)C(=O)c1cc2cnc(Nc3ccc(N4CCNCC4)cn3)nc2n1C1CCCC1` [Batch B685591]: the “Nitrite [ppm] LOD (1 ppm)” value is given as “<LOD”.
In the case of `CN(C)C(=O)c1cc2cnc(Nc3ccc(N4CCNCC4)cn3)nc2n1C1CCCC1` [Batch B687416], the “Nitrite [ppm] LOD (1 ppm)” value is on record as “<LOD”.

The series is the same for the next values; noted with them: ribociclib succinate drug substance batches at release.
Regarding `CN(C)C(=O)c1cc2cnc(Nc3ccc(N4CCNCC4)cn3)nc2n1C1CCCC1.O=C(O)CCC(=O)O` [Batch B692472], the “Nitrite NAP method (ppm)” value was determined as 0.2 ppm and the “Nitrite NAT enhanced sample prep. (ppm)” value amounted to 0.1 ppm.
Turning to `CN(C)C(=O)c1cc2cnc(Nc3ccc(N4CCNCC4)cn3)nc2n1C1CCCC1.O=C(O)CCC(=O)O` [Batch B695104], the “Nitrite NAP method (ppm)” value is 0.3 ppm and the “Nitrite NAT enhanced sample prep. (ppm)” value came out at 0.5 ppm.
Consider `CN(C)C(=O)c1cc2cnc(Nc3ccc(N4CCNCC4)cn3)nc2n1C1CCCC1.O=C(O)CCC(=O)O` [Batch B695105], for which the “Nitrite NAP method (ppm)” value stood at 0.3 ppm and the “Nitrite NAT enhanced sample prep. (ppm)” value was 0.3 ppm.
Consider `CN(C)C(=O)c1cc2cnc(Nc3ccc(N4CCNCC4)cn3)nc2n1C1CCCC1.O=C(O)CCC(=O)O` [Batch B695106], for which the “Nitrite NAP method (ppm)” value is on record as 0.2 ppm and the “Nitrite NAT enhanced sample prep. (ppm)” value is recorded as 0.1 ppm.
Turning to `CN(C)C(=O)c1cc2cnc(Nc3ccc(N4CCNCC4)cn3)nc2n1C1CCCC1.O=C(O)CCC(=O)O` [Batch B696587], the “Nitrite NAP method (ppm)” value worked out at 0.2 ppm and the “Nitrite NAT enhanced sample prep. (ppm)” value is given as under 0.1 ppm.
On to `CN(C)C(=O)c1cc2cnc(Nc3ccc(N4CCNCC4)cn3)nc2n1C1CCCC1.O=C(O)CCC(=O)O` [Batch B696588], for which the “Nitrite NAP method (ppm)” value is recorded as 0.2 ppm and the “Nitrite NAT enhanced sample prep. (ppm)” value is reported as 0.1 ppm.
Turning to `CN(C)C(=O)c1cc2cnc(Nc3ccc(N4CCNCC4)cn3)nc2n1C1CCCC1.O=C(O)CCC(=O)O` [Batch B696589], the “Nitrite NAP method (ppm)” value is 0.2 ppm and the “Nitrite NAT enhanced sample prep. (ppm)” value is given as under 0.1 ppm.
As to `CN(C)C(=O)c1cc2cnc(Nc3ccc(N4CCNCC4)cn3)nc2n1C1CCCC1.O=C(O)CCC(=O)O` [Batch B696590], the “Nitrite NAP method (ppm)” value is reported as 0.3 ppm and the “Nitrite NAT enhanced sample prep. (ppm)” value worked out at 0.4 ppm.
With `CN(C)C(=O)c1cc2cnc(Nc3ccc(N4CCNCC4)cn3)nc2n1C1CCCC1.O=C(O)CCC(=O)O` [Batch B698293], the “Nitrite NAP method (ppm)” value was 0.3 ppm and the “Nitrite NAT enhanced sample prep. (ppm)” value stood at 0.4 ppm.
With `CN(C)C(=O)c1cc2cnc(Nc3ccc(N4CCNCC4)cn3)nc2n1C1CCCC1.O=C(O)CCC(=O)O` [Batch B698294], the “Nitrite NAP method (ppm)” value stood at 0.2 ppm and the “Nitrite NAT enhanced sample prep. (ppm)” value was 0.2 ppm.
Regarding `CN(C)C(=O)c1cc2cnc(Nc3ccc(N4CCNCC4)cn3)nc2n1C1CCCC1.O=C(O)CCC(=O)O` [Batch B698295], the “Nitrite NAP method (ppm)” value turned out to be 0.3 ppm and the “Nitrite NAT enhanced sample prep. (ppm)” value was found to be 0.4 ppm.
Take `CN(C)C(=O)c1cc2cnc(Nc3ccc(N4CCNCC4)cn3)nc2n1C1CCCC1.O=C(O)CCC(=O)O` [Batch B698296]: the “Nitrite NAP method (ppm)” value turned out to be 0.4 ppm and the “Nitrite NAT enhanced sample prep. (ppm)” value is listed as 0.3 ppm.
For `CN(C)C(=O)c1cc2cnc(Nc3ccc(N4CCNCC4)cn3)nc2n1C1CCCC1.O=C(O)CCC(=O)O` [Batch B698297] the same measures were 0.2 ppm and 0.1 ppm.
For `CN(C)C(=O)c1cc2cnc(Nc3ccc(N4CCNCC4)cn3)nc2n1C1CCCC1.O=C(O)CCC(=O)O` [Batch B698298], the “Nitrite NAP method (ppm)” value is 0.2 ppm and the “Nitrite NAT enhanced sample prep. (ppm)” value was under 0.1 ppm.
The like results for `CN(C)C(=O)c1cc2cnc(Nc3ccc(N4CCNCC4)cn3)nc2n1C1CCCC1.O=C(O)CCC(=O)O` [Batch B699003] were, in that order, 0.1 ppm and under 0.1 ppm.
Regarding `CN(C)C(=O)c1cc2cnc(Nc3ccc(N4CCNCC4)cn3)nc2n1C1CCCC1.O=C(O)CCC(=O)O` [Batch B707657], the “Nitrite NAP method (ppm)” value is given as 0.2 ppm and the “Nitrite NAT enhanced sample prep. (ppm)” value came to 0.1 ppm.
On to `CN(C)C(=O)c1cc2cnc(Nc3ccc(N4CCNCC4)cn3)nc2n1C1CCCC1.O=C(O)CCC(=O)O` [Batch B708687], for which the “Nitrite NAP method (ppm)” value is recorded as 0.2 ppm and the “Nitrite NAT enhanced sample prep. (ppm)” value was under 0.1 ppm.
Consider `CN(C)C(=O)c1cc2cnc(Nc3ccc(N4CCNCC4)cn3)nc2n1C1CCCC1.O=C(O)CCC(=O)O` [Batch B708688], for which the “Nitrite NAP method (ppm)” value is 0.2 ppm and the “Nitrite NAT enhanced sample prep. (ppm)” value is reported as under 0.1 ppm.
For `CN(C)C(=O)c1cc2cnc(Nc3ccc(N4CCNCC4)cn3)nc2n1C1CCCC1.O=C(O)CCC(=O)O` [Batch B709049] the same measures were 0.2 ppm and under 0.1 ppm.
For `CN(C)C(=O)c1cc2cnc(Nc3ccc(N4CCNCC4)cn3)nc2n1C1CCCC1.O=C(O)CCC(=O)O` [Batch B709050] the same measures were 0.2 ppm and 0.1 ppm.
On to `CN(C)C(=O)c1cc2cnc(Nc3ccc(N4CCNCC4)cn3)nc2n1C1CCCC1.O=C(O)CCC(=O)O` [Batch B709051], for which the “Nitrite NAP method (ppm)” value came to 0.2 ppm and the “Nitrite NAT enhanced sample prep. (ppm)” value is listed as under 0.1 ppm.
The like results for `CN(C)C(=O)c1cc2cnc(Nc3ccc(N4CCNCC4)cn3)nc2n1C1CCCC1.O=C(O)CCC(=O)O` [Batch B709938] were, in that order, 0.2 ppm and under 0.1 ppm.
With `CN(C)C(=O)c1cc2cnc(Nc3ccc(N4CCNCC4)cn3)nc2n1C1CCCC1.O=C(O)CCC(=O)O` [Batch B709939], the “Nitrite NAP method (ppm)” value was 0.2 ppm and the “Nitrite NAT enhanced sample prep. (ppm)” value is on record as under 0.1 ppm.
For the compound `CN(C)C(=O)c1cc2cnc(Nc3ccc(N4CCNCC4)cn3)nc2n1C1CCCC1.O=C(O)CCC(=O)O` [Batch B709940], the “Nitrite NAP method (ppm)” value is on record as 0.2 ppm and the “Nitrite NAT enhanced sample prep. (ppm)” value is listed as under 0.1 ppm.
For the compound `CN(C)C(=O)c1cc2cnc(Nc3ccc(N4CCNCC4)cn3)nc2n1C1CCCC1.O=C(O)CCC(=O)O` [Batch B709941], the “Nitrite NAP method (ppm)” value is listed as 0.1 ppm and the “Nitrite NAT enhanced sample prep. (ppm)” value was 0.1 ppm.
Take `CN(C)C(=O)c1cc2cnc(Nc3ccc(N4CCNCC4)cn3)nc2n1C1CCCC1.O=C(O)CCC(=O)O` [Batch B710665]: the “Nitrite NAP method (ppm)” value worked out at 0.2 ppm and the “Nitrite NAT enhanced sample prep. (ppm)” value was 1.6 ppm.
As for `CN(C)C(=O)c1cc2cnc(Nc3ccc(N4CCNCC4)cn3)nc2n1C1CCCC1.O=C(O)CCC(=O)O` [Batch B710666], the “Nitrite NAP method (ppm)” value worked out at 0.5 ppm and the “Nitrite NAT enhanced sample prep. (ppm)” value is on record as under 0.1 ppm.
For `CN(C)C(=O)c1cc2cnc(Nc3ccc(N4CCNCC4)cn3)nc2n1C1CCCC1.O=C(O)CCC(=O)O` [Batch B710668] the same measures were 0.2 ppm and 0.1 ppm.
For the compound `CN(C)C(=O)c1cc2cnc(Nc3ccc(N4CCNCC4)cn3)nc2n1C1CCCC1.O=C(O)CCC(=O)O` [Batch B710669], the “Nitrite NAP method (ppm)” value was determined as 0.1 ppm and the “Nitrite NAT enhanced sample prep. (ppm)” value was under 0.1 ppm.
Regarding `CN(C)C(=O)c1cc2cnc(Nc3ccc(N4CCNCC4)cn3)nc2n1C1CCCC1.O=C(O)CCC(=O)O` [Batch B711439], the “Nitrite NAP method (ppm)” value came out at 0.1 ppm and the “Nitrite NAT enhanced sample prep. (ppm)” value is under 0.1 ppm.
